Measurements taken from ChEMBL document CHEMBL1153064, “From lead to preclinical candidate: optimization of beta-homophenylalanine based inhibitors of dipeptidyl peptidase IV” (Bioorg Med Chem Lett, 2009).

Experiment: in vitro
Conditions: human

half-life at 0.75 h, 3 µM (liver microsomes) [min] | half-life at 0.75 h, 3 µM (microsomes) [min] | SMILES
71 | – | N[C@@H](CC(=O)N1CCC[C@H]1CNC(=O)C1CCCC1)Cc1cc(F)c(F)cc1F
> 120 | – | N[C@@H](CC(=O)N1CCC[C@H]1CNC(=O)CC(F)(F)F)Cc1cc(F)c(F)cc1F
– | 30 | N[C@@H](CC(=O)N1CCC[C@H]1COCC1CC1)Cc1cc(F)c(F)cc1F
38 | – | N[C@@H](CC(=O)N1CCC[C@H]1CNC(=O)C1CCC1)Cc1cc(F)c(F)cc1F
